Laboratory results reported in the METLIN SMRT retention time set (Domingo-Almenara et al. 2019).

Assay: gradient 5% acetonitrile 3 min, to 50% in 2 min, to 85% in 15 min, held 3 min, 100 µL/min
Settings: column: Zorbax Extend-C18 2.1 x 50 mm; eluents: water / acetonitrile, 0.1% formic acid
Procedure, shortened: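 Standards, all pure, were combined into mixtures of ~100 molecules and run at 100 μL/min on a Zorbax Extend-C18 column (2.1 × 50 mm, 1.8 μm) with water and acetonitrile, each containing 0.1% formic acid. A coupled quadrupole time-of-flight mass spectrometer operated in positive and negative ionization mode. Retention time values come from computationally picked adduct peaks, each inspected manually.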

Row | Compound | RP-LC retention time [s]
1 | CCc1nn2c(CNC(=O)c3ccc(OC)cc3)c(-c3ccccc3)nc2s1 | 881
2 | COc1ccc(-c2nc(N(C)C3CCCCC3)c3ccccc3n2)cc1 | 918
3 | CCc1cc(C(=O)Nc2ccc(C)cc2)nc2ccnn12 | 1060
4 | Cc1ccc2[nH]cc(CCN3CC(C(=O)Nc4nnc(C)s4)CC3=O)c2c1 (configuration not stated) | 785
5 | O=C(c1ccc(N2C[C@H]3C[C@H](C2)[C@H]2CCCC(=O)N2C3)nc1)N1CCN(c2ncccn2)CC1 | 567
6 | Cc1noc(C2CCCCN2Cc2cc(=O)n3ccccc3n2)n1 (configuration not stated) | 608
7 | Cc1ccc(C(=O)NCC2CCCN(S(=O)(=O)c3c(C)cc(C)cc3C)C2)cc1 (configuration not stated) | 1060
8 | Cc1ccc(NC(=O)Cn2c(C)nc3cc4c(cc32)OCCO4)cc1C | 678
9 | CCOc1ccc(S(=O)(=O)N2CCC(C(=O)NCC3CCCO3)CC2)cc1 (configuration not stated) | 750
10 | O=C(Cn1nc2ccc(C(=O)NCc3ccccc3)cn2c1=O)NCCC1=CCCCC1 | 811
11 | COc1ccc(-c2csc(NC(=O)c3ccc(Cl)c(Cl)c3)n2)cc1 | 1140
12 | Cn1c(=O)oc2cc(-c3noc(-c4ccc(CS(=O)(=O)c5ccccc5)cc4)n3)ccc21 | 959
13 | O=C(NCc1ccc(F)cc1F)C1CCCN(c2ccc(-c3ccccc3)nn2)C1 (configuration not stated) | 722
14 | COCCCNC(=O)C1CCN(C(=O)c2ccc(-n3c(C)cc4ccccc43)s2)CC1 | 854
15 | CS(=O)(=O)c1ccc2nc(NC(=O)c3coc(NC(=O)c4cccs4)n3)sc2c1 | 685
16 | Cc1cccc(CN2CCCn3nc(C(=O)NCc4ccco4)cc3C2=O)c1 | 810
17 | C[C@]12CCC3C(CC[C@H]4C[C@H](O)CC[C@]34C)C1CC[C@@H]2C(=O)CO (some centres not stated) | 1020
18 | CC(C)Oc1ccc(CNC(=O)c2cc(-c3ccncc3)cn2C)cc1 | 640
19 | O=C(NCCc1ccccc1)C1CC(=O)N(CCc2c[nH]c3ccc(F)cc23)C1 (configuration not stated) | 867
20 | CC(C)N1CCN(C(=O)c2csc(N3CCN(c4ccc(Cl)cc4)CC3)n2)CC1 | 706
21 | CCOc1ccc(Br)cc1CNc1ccc2[nH]c(=O)[nH]c2c1 | 668
22 | COc1ccc(CNC(=O)Cn2c(C)nc3c(sc4nc(-c5ccccc5)ccc43)c2=O)cc1 | 970

Row | Compound | RP-LC retention time [s]
23 | CN(C)C(=O)c1csc(S(=O)(=O)N2CCC(C(=O)NCc3cccnc3)CC2)c1 | 579
24 | Cc1nc2cc(-c3ccc(Cl)cc3)nn2c(C)c1CCC(=O)N1CCN(c2ccccn2)CC1 | 727
25 | CCOC(=O)CCNC(=O)NCc1nnnn1-c1ccc(OCC)cc1 | 675
26 | O=C(NCCC1=CCCCC1)c1ccc2ncnc(N3CCCC3)c2c1 | 688
27 | CN1C[C@@H](CO)C=C2c3cccc4[nH]cc(c34)C[C@@H]21 | 607
28 | O=c1n(Cc2cccc(Br)c2)nc2c(S(=O)(=O)N3CCCC3)cccn12 | 887
29 | Cc1ccnc(N2CCC(C(=O)NCc3ccc4c(c3)OCO4)CC2)n1 | 658
30 | O=C(Nc1nnc(C2CC(=O)N(c3ccccc3)C2)o1)c1ccccc1Br (configuration not stated) | 709
31 | O=C(NCc1ccc(F)c(Cl)c1)c1ccc2ncnc(N3CCCC3)c2c1 | 670
32 | CN1c2cc(F)ccc2C(=O)NC12CCN(C(=O)c1cc(F)cc(F)c1)CC2 | 793
33 | Cc1noc(-c2nn(C)c3c2CN(C(=O)Nc2ccc(C(F)(F)F)cc2)CC3)n1 | 847
34 | CCCN1C(=O)COc2ccc(-c3csc(NC(=O)c4c(OC)cccc4OC)n3)cc21 | 944
35 | Cc1ccc(CC(=O)NC2CCN(c3ccccc3)C2=O)cc1 (configuration not stated) | 797
36 | CCc1ccccc1NC(=O)C1CCCN(c2ncnc3c2nc2n3CCCCC2)C1 (configuration not stated) | 802
37 | CN1c2ccc(Cl)cc2C(=O)NC12CCN(C(=O)NCCc1ccccc1)CC2 | 819
38 | Cc1cnc(C(=O)N[C@@H]2CCC[C@@H]2C(=O)NC2CCCC2)cn1 | 638
39 | CCn1c(=O)c(C)nc2cc(-c3noc(/C=C/c4ccc(OC)c(OC)c4)n3)ccc21 | 1010
40 | CCOCCCNC(=O)C1=NN(c2ccc(F)cc2)c2ccc(F)cc2S1(=O)=O | 885
41 | COCCn1ccc2nc(C)c(C(=O)NCCc3ccco3)cc2c1=O | 638
42 | O=C(NCCc1ccco1)C1CCCN(C(=O)c2cccn2-c2cccnc2)C1 (configuration not stated) | 660
43 | COc1ccc(Cl)cc1NC(=O)NCC(=O)N1CCc2ccccc21 | 930
44 | Cc1ccccc1Cc1noc(-c2nc(-c3ccc4c(c3)OCO4)no2)n1 | 1190

Row | Compound | RP-LC retention time [s]
45 | CCN1C(=O)c2cccnc2Sc2cc(NC(=O)COc3ccc(F)c(F)c3)ccc21 | 882
46 | O=C(Nc1cccc(F)c1)c1c(O)c2cccnc2n(-c2ccc(F)cc2)c1=O | 1250
47 | Cc1cccc(Cn2c(=O)n(CCNC(=O)CC(C)C)c3ncccc32)c1 | 800
48 | O=C(Nc1ccc(OC(F)(F)F)cc1)C(=O)Nc1ccccc1[N+](=O)[O-] | 1090
49 | CCSc1nc2ccc(NS(=O)(=O)c3ccccc3F)cc2s1 | 964
50 | CC1CCN(S(=O)(=O)c2cc(C(=O)N3CCN(c4ccccc4F)CC3)n(C)c2)CC1 | 1050
51 | O=c1c2cc(-c3ccc4c(c3)OCO4)nn2ccn1Cc1nc(-c2cccc(F)c2)no1 | 1010
52 | O=C(c1ccoc1)N1CCC(F)(C(=O)NCC2CC2)CC1 | 618
53 | Cc1cc(C)cc(NC(=O)N2CCc3cn(C)c4cccc(c34)C2)c1 | 1050
54 | CCc1ccc2nc(C)cc(C(=O)NC)c2c1 | 568
55 | O=C(Cn1cccc1-c1nc(-c2ccc3c(c2)OCO3)no1)Nc1ccc2c(c1)OCCO2 | 963
56 | CC(=O)c1ccc(NC(=O)CNS(=O)(=O)c2ccc(C(C)(C)C)cc2)cc1 | 663
57 | Cc1ccc(-c2nc(-c3ccc4oc(C)nc4c3)no2)c(C)c1 | 1310
58 | COc1ccc(N2CC(c3noc(-c4ccccc4)n3)CC2=O)cc1 (configuration not stated) | 919
59 | Cc1ccc(-c2nc(-c3ccc(-c4noc(CNC(=O)c5ccccc5)n4)cc3)cs2)s1 | 1250
60 | Cc1ccc(NC(=O)N2CCC(OC3CCN(S(C)(=O)=O)CC3)CC2)c(C)c1 | 743
61 | Cc1ccc(-c2nc3ncccn3c2Nc2cc(C)ccc2C)cc1 | 825
62 | COc1ccc(OC)c(-c2cc(C(=O)N3CCN(Cc4ccsc4)CC3)n(C)n2)c1 | 580
63 | CCCN1C(=O)C(NC(=O)c2cccc(OC)c2)(C(F)(F)F)C(C(=O)OC)=C1C (configuration not stated) | 946
64 | C=C1C(=O)OC2CC(C)C3(O)CCC(=O)C3(C)CC12 (configuration not stated) | 775
65 | COCCCNC(=O)N1CCCC1c1nc(-c2ccccc2C)no1 (configuration not stated) | 785
66 | O=C(NCc1ccccn1)C1CCN(c2cc(N3CCSCC3)ncn2)CC1 | 559

Row | Compound | RP-LC retention time [s]
67 | COc1ccc(S(=O)(=O)N2CCC(c3nc(C(=O)N(C)C)c(C)o3)CC2)cc1Cl | 806
68 | CCc1ccccc1N1C(=O)CN(S(=O)(=O)CC)CC1(C)C(=O)NC1CCCCCC1 (configuration not stated) | 957
69 | COc1ccccc1N1CCN(C(=O)c2cn(-c3cc(N4CCCCC4)ncn3)cn2)CC1 | 856
70 | COc1ccc(Cl)cc1NC(=O)Cn1cccc1-c1nnc(C2CCC2)o1 | 1040
71 | CCn1cnc(S(=O)(=O)N2CCCC(C(=O)NCCCc3ccccc3)C2)c1 (configuration not stated) | 769
72 | Cc1ccc(C)c(S(=O)(=O)N2[C@H]3CC[C@@H]2c2cnc(-c4ccc(F)cc4)nc2C3)c1 | 1270
73 | CC(=O)N1CCc2[nH]c3ccc(C(=O)Nc4ccc(N5CCOCC5)cc4)cc3c2C1 | 654
74 | Cc1ccc(Cl)cc1NC(=O)CN1CCN(Cc2ccc(F)cc2)C(=O)C1=O | 804
75 | CCCN1C(=O)COc2cc(-c3noc(C(=O)NCCC(C)C)n3)ccc21 | 1060
76 | CCN1CCN(C(=O)CN2C(=O)C3CCCCN3c3ccc(S(=O)(=O)N(CC)CC)cc32)CC1 (configuration not stated) | 670
77 | Cc1ccc(Cn2nc3c(S(=O)(=O)N4CCN(c5ccc(F)cc5)CC4)cccn3c2=O)cc1 | 1020
78 | CN(CCc1noc(-c2ccc(C(=O)N3CCCC3)cc2)n1)C(=O)c1c(F)cccc1F | 784
79 | COc1ccccc1CC(=O)Nc1ccc(-c2nc(Cn3nc(C)cc3C)c(C)o2)cc1 | 924
80 | O=C(NC1CCCCCC1)C1CCN(c2cn[nH]c(=O)c2)C1 (configuration not stated) | 652
81 | COCCc1noc(-c2nc(-c3ccc(OC)c(OC)c3)no2)n1 | 892
82 | Cc1c(CCC(=O)NCC(=O)N[C@@H](C(=O)O)C(C)C)c(=O)oc2c(C)c(O)ccc12 | 636
83 | CCCNC(=O)C1CCCN(c2ccc(SCC(=O)Nc3cc(C)cc(C)c3)nn2)C1 (configuration not stated) | 721
84 | Cc1cc(NS(=O)(=O)c2cc(-c3[nH]ncc3C(=O)N(C)C)oc2C)ccc1F | 699
85 | O=C(c1cc(Cl)ccc1Cl)N1CCN(CC(O)c2cccs2)CC1 (configuration not stated) | 581
86 | c1ccc(-c2nc(-c3cccc(-c4ccn[nH]4)c3)no2)cc1 | 966
87 | O=C(Cc1ccsc1)N1CCC(c2noc(C3CC3)n2)C1 (configuration not stated) | 734
